Data published in patent US20250122207A1, “AP2 ASSOCIATED KINASE 1 INHIBITORS AND USES THEREOF” (Satellos Bioscience Inc., priority 2023, published 2025).
Where two headings read alike, the source gives them in different places.

Legend:
[1] = biological target: T1, BIKE (amino acids S38-E345) (K320A, K321A) (Homo sapiens, UniProt Q9NSY1, K320A/K321A); assay: BIKE pSENs assay; format: biochemical
T1 construct: against BIKE (amino acids S38-E345) (K320A, K321A); 6His (N, cleaved yes)
Protocol: The recombinant proteins were independently expressed in Escherichia coli BL21(DE3) cells cultured in Luria-Bertani (LB) medium until OD600 reached 0.6-0.8, then cooled to 15° C. and supplemented with 0.5 mM isopropyl 1-thio-D-galactopyranoside (IPTG) induce protein expression 16 h. Cells were harvested and resuspended in lysis buffer (50 mM HEPES pH 7.5, 500 mM NaCl, 5 mM imidazole, 5% glycerol, 0.5 mM Tris (2-carboxyethyl) phosphine (TCEP), cOmplete Protease Inhibitor Tablet (Roche)) and lysed by microfludics high pressure homogenizer (UH-06, Union-Biotech). Proteins were purified using […] chromatography (His FF column, Bestchrom) and eluted stepwise in binding buffer with 20-300 mM imidazole. Removal of the hexahistidine tag was performed at 4° C. overnight using recombinant TEV protease and reacted with BirA to obtain the corresponding biotinylated-AAK1, BIKE or GAK proteins. Further separated in the reverse Strep column (Strep-Tactin® XT, IBA). The Biotin elution sample was collected containing untagged biotinylated protein was then purified by Ion-exchange chromatography (Mono Q 10/100 GL, Cytiva) and Size-exclusion chromatography (HiLoad 16/600 Superdex 200 pg, Cytiva). The pure protein was stored in a storage buffer 50 mM HEPES (pH 7.5), 300 mM NaCl, 5% glycerol at −80° C. Protein were characterized by SDS-PAGE, LC-MS and aSEC.
BIKE protein was dissolved at 20 nM in 1× enzyme solution (50 mM HEPES pH7.5, 10 mM MgCl2, 1 mM DTT, 1% glycerol, 0.5 mM EGTA, 0.01% Briji35, 0.02% BSA) and 12.5 ul was incubated with 250 nl DMSO or 250 nl compound in DMSO at 25° C. for 15 min. The reaction was started by addition of 12.5 ul of 30 uM AQT0759 (Assayquant, CSKS-AQT0759B) and 40 uM ATP which were diluted in 1× substrate dilution buffer (50 mM HEPES pH7.5, 10 mM MgCl2, 1 mM DTT, 1% glycerol, 0.5 mM EGTA, 0.01% Briji35).

[2] = biological target: T2, AAK1 (amino acids T27-A365) (Homo sapiens, UniProt Q2M2I8); assay: AAK1 pSENs assay; format: biochemical
T2 construct: against AAK1 (amino acids T27-A365); 6His (N, cleaved yes)
Outline: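 Biotinylated, tag-free AAK1 T27-A365 expressed in E. coli was held at 20 nM in enzyme solution (HEPES pH 7.5, 10 mM MgCl2, DTT, EGTA, Brij35, BSA) and preincubated with compound for 15 min at 25 °C. The reaction was started with an equal volume of substrate solution containing 30 uM AQT0759 peptide and 70 uM ATP. IC50 determined.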

AAK1 = AAK1 (Homo sapiens, UniProt Q2M2I8); assay: pAP2M1 cell-based assay (in-cell Western)
Description: pAP2M1 Cell-Based Assay (in-Cell Western):
The plate was read on Licor Odyssey CLx imaging system (LICOR) to acquire fluorescence intensity at 700 channel and 800 channel.
Data analysis: Fluorescence intensity at 700 channel served as internal standard and 800 channel were normalized with 700 channel.

[3] = class symbols, read-out: BIKE pSENs: IC50
[4] = class symbols, read-out: AAK1 pSENs: EIC50
[5] = Hela cells co-transfected with AP2M1 and AAK1, 3 hr treatment, class symbols, read-out: AAK1 In-cell Western: IC50

T1 sequence (Q9NSY1 38-345 K320A/K321A): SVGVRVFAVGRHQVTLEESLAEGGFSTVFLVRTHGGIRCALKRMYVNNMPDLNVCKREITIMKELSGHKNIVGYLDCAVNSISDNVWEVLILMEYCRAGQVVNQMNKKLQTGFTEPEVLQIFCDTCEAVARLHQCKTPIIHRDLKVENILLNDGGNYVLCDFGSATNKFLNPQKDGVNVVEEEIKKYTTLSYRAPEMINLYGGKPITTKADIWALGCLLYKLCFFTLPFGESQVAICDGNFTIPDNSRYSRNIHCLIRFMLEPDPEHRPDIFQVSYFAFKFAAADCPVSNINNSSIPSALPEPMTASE
T2 sequence (Q2M2I8 27-365): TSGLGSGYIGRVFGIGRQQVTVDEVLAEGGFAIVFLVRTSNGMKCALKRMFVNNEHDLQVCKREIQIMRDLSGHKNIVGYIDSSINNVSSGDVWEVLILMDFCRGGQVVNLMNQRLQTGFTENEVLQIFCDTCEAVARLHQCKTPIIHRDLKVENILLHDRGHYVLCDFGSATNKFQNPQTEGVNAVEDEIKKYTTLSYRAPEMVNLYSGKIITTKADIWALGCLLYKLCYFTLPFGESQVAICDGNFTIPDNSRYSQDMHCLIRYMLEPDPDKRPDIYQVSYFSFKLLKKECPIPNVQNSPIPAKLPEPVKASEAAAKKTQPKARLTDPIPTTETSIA
Sequence of AAK1 (Q2M2I8 whole entry): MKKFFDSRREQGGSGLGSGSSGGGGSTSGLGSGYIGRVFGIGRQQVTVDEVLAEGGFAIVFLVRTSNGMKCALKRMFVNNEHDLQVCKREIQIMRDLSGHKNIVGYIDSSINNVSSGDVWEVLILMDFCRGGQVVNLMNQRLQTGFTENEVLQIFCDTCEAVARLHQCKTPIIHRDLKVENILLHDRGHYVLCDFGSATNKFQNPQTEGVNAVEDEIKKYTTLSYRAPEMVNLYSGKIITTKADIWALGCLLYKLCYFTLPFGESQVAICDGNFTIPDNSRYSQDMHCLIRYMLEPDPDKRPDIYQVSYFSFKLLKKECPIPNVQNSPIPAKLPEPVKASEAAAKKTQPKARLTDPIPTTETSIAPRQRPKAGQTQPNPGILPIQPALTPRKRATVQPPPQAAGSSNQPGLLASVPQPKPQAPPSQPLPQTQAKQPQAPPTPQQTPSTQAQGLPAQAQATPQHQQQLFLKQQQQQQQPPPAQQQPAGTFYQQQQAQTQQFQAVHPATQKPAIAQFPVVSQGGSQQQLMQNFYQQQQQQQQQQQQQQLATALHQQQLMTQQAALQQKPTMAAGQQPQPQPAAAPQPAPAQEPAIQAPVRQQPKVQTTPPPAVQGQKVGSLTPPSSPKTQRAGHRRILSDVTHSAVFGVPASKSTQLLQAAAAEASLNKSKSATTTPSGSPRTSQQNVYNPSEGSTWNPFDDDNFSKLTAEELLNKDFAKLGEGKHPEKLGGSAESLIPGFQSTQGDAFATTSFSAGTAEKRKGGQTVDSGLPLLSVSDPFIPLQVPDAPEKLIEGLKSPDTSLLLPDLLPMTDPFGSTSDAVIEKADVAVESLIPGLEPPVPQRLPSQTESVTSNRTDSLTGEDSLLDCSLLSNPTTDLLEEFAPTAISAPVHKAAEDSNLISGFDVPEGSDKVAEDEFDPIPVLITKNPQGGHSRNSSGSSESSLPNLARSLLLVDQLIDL

Row | SMILES | IC50 [1, 3] [nM] | IC50 [2, 4] [nM] | IC50 (AAK1; [5]) [nM] | IC50 [1] [nM] | IC50 [2] [nM] | IC50 (AAK1) [nM] | AAK1:GAK pSENs Selectivity ([2]; ratio of AAK1 pSENs activity to GAK pSENs activity, class symbols)
1 | CN1C[C@@H](OC(=O)N2CCN(c3nc4c(-c5cccnc5OC5CCCC5)cnn4cc3F)CC2)CC1=O [Compound I-121, [(3S)-1-methyl-5-oxo-pyrrolidin-3-yl]-4-[3-[2-(cyclopentoxy)-3-pyridyl]-6-fluoro-pyrazolo[1,5-a]pyrimidin-5-yl]piperazine-1-carboxylate] | 501 to 1500 | 51 to 150 | > 1500 |  |  |  | 
2 | CN1C[C@@H](OC(=O)N2CCN(c3nc4c(-c5cccnc5OC5CC5)cnn4cc3F)CC2)CC1=O [Compound I-109, [(3S)-1-methyl-5-oxo-pyrrolidin-3-yl]4-[3-[2-(cyclopropoxy)-3-pyridyl]-6-fluoro-pyrazolo[1,5-a]pyrimidin-5-yl]piperazine-1-carboxylate] | 51 to 150 | 1 to 50 | 151 to 500 |  |  |  | 
3 | [2H]C([2H])([2H])N1C[C@@H](OC(=O)N2CCN(c3ccn4ncc(-c5cccnc5OC5CC5)c4n3)CC2)CC1=O [Compound I-113, [(3S)-5-oxo-1-(trideuteriomethyl)pyrrolidin-3-yl]4-[3-[2-(cyclopropoxy)-3-pyridyl]pyrazolo[1,5-a]pyrimidin-5-yl]piperazine-1-carboxylate] |  |  | 151 to 500 | 501 to 1500 | 1 to 50 |  | 
4 | O=C1C[C@H](OC(=O)N2CCN(c3ccn4ncc(-c5cccnc5OC5CC5)c4n3)CC2)CN1 [Compound I-11, [(3S)-5-Oxopyrrolidin-3-yl]-4-[3-[2-(cyclopropoxy)-3-pyridyl]pyrazolo[1,5-a]pyrimidin-5-yl]piperazine-1-carboxylate hydrochloric acid] | 151 to 500 | 1 to 50 | 151 to 500 |  |  |  | 
5 | CN1C[C@@H](OC(=O)N2CCN(c3ccn4ncc(-c5cccnc5OC5CCOC5)c4n3)CC2)CC1=O (stereo partly drawn) [Compound I-119, [(3S)-1-methyl-5-oxo-pyrrolidin-3-yl]4-[3-(2-tetrahydrofuran-3-yloxy-3-pyridyl)pyrazolo[1,5-a]pyrimidin-5-yl]piperazine-1-carboxylate] | 501 to 1500 | 51 to 150 | > 1500 |  |  |  | 
6 | O=C(O[C@H]1CO[C@H]2OCC[C@H]21)N1CCN(c2ccn3ncc(-c4cccnc4OC4CC4)c3n2)CC1 [Compound I-27, [(3aS,4R,6aR)-2,3,3a,4,5,6a-hexahydrofuro[2,3-b]furan-4-yl]-4-[3-[2-(cyclopropoxy)-3-pyridyl]pyrazolo[1,5-a]pyrimidin-5-yl]piperazine-1-carboxylate] | 151 to 500 | 1 to 50 | 151 to 500 |  |  |  | 
7 | [2H]C1([2H])N(C(=O)O[C@@H]2CNC(=O)C2)C([2H])([2H])C([2H])([2H])N(c2ccn3ncc(-c4cccnc4OC4CC4)c3n2)C1([2H])[2H] [Compound I-72, [(3S)-5-oxopyrrolidin-3-yl]4-[3-[2-(cyclopropoxy)-3-pyridyl]pyrazolo[1,5-a]pyrimidin-5-yl]-2,2,3,3,5,5,6,6-octadeuterio-piperazine-1-carboxylate] |  |  |  | 151 to 500 | 1 to 50 | 501 to 1500 | 
8 | CC1(OC(=O)N2CCN(c3ccn4ncc(-c5cccnc5OC5CC5)c4n3)CC2)COC1 [Compound I-2, (3-methyloxetan-3-yl)-4-[3-[2-(cyclopropoxy)-3-pyridyl]pyrazolo[1,5-a]pyrimidin-5-yl]piperazine-1-carboxylate] | 151 to 500 | 1 to 50 | 51 to 150 |  |  |  | 
9 | CC(=O)N1CC(Oc2ncccc2-c2cnn3ccc(NCCN(C)C(=O)OC(C)(C)C)nc23)C1 [Compound I-63, Tert-butyl (2-((3-(2-((1-acetylazetidin-3-yl)oxy)pyridin-3-yl)pyrazolo[1,5-a]pyrimidin-5-yl)amino)ethyl)(methyl)carbamate] | 51 to 150 | 1 to 50 | 51 to 150 |  |  |  | 
10 | COc1ncccc1-c1cnn2ccc(N3CCN(C(=O)OC4CNC(=O)C4)CC3)nc12 (stereo not shown) [Compound I-6, (5-Oxopyrrolidin-3-yl) 4-[3-(2-methoxy-3-pyridyl)pyrazolo[1,5-a]pyrimidin-5-yl]piperazine-1-carboxylate] | 1 to 50 | 1 to 50 | 501 to 1500 |  |  |  | 
11 | CN1CC[C@@](C)(OC(=O)N2CCN(c3ccn4ncc(-c5cccnc5OC5CC5)c4n3)CC2)C1 [Compound I-50, [(3R)-1,3-dimethylpyrrolidin-3-yl]-4-[3-[2-(cyclopropoxy)-3-pyridyl]pyrazolo[1,5-a]pyrimidin-5-yl]piperazine-1-carboxylate] | 501 to 1500 | 1 to 50 | 151 to 500 |  |  |  | 
12 | [2H]C1([2H])N(C(=O)O[C@H]2CC(=O)N(C)C2)C([2H])([2H])C([2H])([2H])N(c2ccn3ncc(-c4cccnc4OC4CC4)c3n2)C1([2H])[2H] [Compound I-73, [(3S)-1-methyl-5-oxo-pyrrolidin-3-yl]-4-[3-[2-(cyclopropoxy)-3-pyridyl]pyrazolo[1,5-a]pyrimidin-5-yl]-2,2,3,3,5,5,6,6-octadeuterio-piperazine-1-carboxylate] |  |  |  | 501 to 1500 | 1 to 50 | 501 to 1500 | A (A: ≤0.015)
13 | C[C@@]1(OC(=O)N2CCN(c3ccn4ncc(-c5cccnc5OC5CC5)c4n3)CC2)CCN(CCO)C1 [Compound I-52, [(3R)-1-(2-hydroxyethyl)-3-methyl-pyrrolidin-3-yl]-4-[3-[2-(cyclopropoxy)-3-pyridyl]pyrazolo[1,5-a]pyrimidin-5-yl]piperazine-1-carboxylate] | 501 to 1500 | 1 to 50 | 151 to 500 |  |  |  | 
14 | O=C(O[C@H]1CC(=O)N(C2CCNCC2)C1)N1CCN(c2ccn3ncc(-c4cccnc4OC4CC4)c3n2)CC1 [Compound I-32, [(3S)-5-Oxo-1-(4-piperidyl)pyrrolidin-3-yl]4-[3-[2-(cyclopropoxy)-3-pyridyl]pyrazolo[1,5-a]pyrimidin-5-yl]piperazine-1-carboxylate] | 51 to 150 | 1 to 50 | > 1500 |  |  |  | 
15 | CNCCN1C[C@@H](OC(=O)N2CCN(c3ccn4ncc(-c5cccnc5OC5CC5)c4n3)CC2)CC1=O [Compound I-36, (S)-1-(2-(methylamino)ethyl)-5-(oxopyrrolidin-3-yl)-4-(3-(2-cyclopropoxypyridin-3-yl)pyrazolo[1,5-a]pyrimidin-5-yl)piperazine-1-carboxylate] | 51 to 150 | 1 to 50 | 501 to 1500 |  |  |  | 
16 | CN1C[C@@H](OC(=O)N2CCN(c3ccn4ncc(-c5cc(F)cnc5OC5CC5)c4n3)CC2)CC1=O [Compound I-86] | 151 to 500 | 1 to 50 | 151 to 500 |  |  |  | 
17 | CN1C[C@@H](OC(=O)N2CCN(c3nc4c(-c5cccnc5OC5CCOC5)cnn4cc3F)CC2)CC1=O (stereo partly drawn) [Compound I-120, [(3S)-1-methyl-5-oxo-pyrrolidin-3-yl]4-[6-fluoro-3-(2-tetrahydrofuran-3-yloxy-3-pyridyl)pyrazolo[1,5-a]pyrimidin-5-yl]piperazine-1-carboxylate] | 151 to 500 | 51 to 150 | > 1500 |  |  |  | 
18 | CN1C[C@@H](OC(=O)N2CCN(c3ccn4ncc(-c5cccnc5OC5CC5)c4n3)CC2)CC1=O [Compound I-34, [(3S)-1-methyl-5-oxo-pyrrolidin-3-yl]-4-[3-[2-(cyclopropoxy)-3-pyridyl]pyrazolo[1,5-a]pyrimidin-5-yl]piperazine-1-carboxylate] |  | 1 to 50 | 151 to 500 | 151 to 500 |  |  | 
19 | O=C1C[C@@H](OC(=O)N2CCN(c3ccn4ncc(-c5cccnc5OC5CC5)c4n3)CC2)CN1 [Compound I-10, [(3R)-5-Oxopyrrolidin-3-yl]-4-[3-[2-(cyclopropoxy)-3-pyridyl]pyrazolo[1,5-a]pyrimidin-5-yl]piperazine-1-carboxylate] | 151 to 500 | 1 to 50 | 501 to 1500 |  |  |  | 
